Results: ChEMBL document CHEMBL4673288, “Structure-activity relationship of novel acridone derivatives as antiproliferative agents” (Bioorg Med Chem, 2021)
Calls of active or inactive are those of the source. The rule behind the calls is not given here.

Key:
[1] = molecular target: DNA topoisomerase 2-alpha (Homo sapiens) (UniProt P11388); assay: Inhibition of recombinant human topoisomerase 2 alpha-mediated relaxation of supercoiled pBR322 DNA at 200 uM incubated for 30 mins by ethidium bromide staining based agarose gel electrophoresis method
[2] = test system: HCT-116; assay: Antiproliferative activity against human HCT-116 cells assessed as reduction in cell viability incubated for 72 hrs by SRB assay; type: functional, cell-based; conditions: HCT-116, 72 h
[3] = test system: HeLa; assay: Antiproliferative activity against human HeLa cells assessed as reduction in cell viability incubated for 72 hrs by SRB assay; type: functional, cell-based
[4] = test system: SW480; assay: Antiproliferative activity against human SW480 cells assessed as reduction in cell viability incubated for 72 hrs by SRB assay; type: functional, cell-based; conditions: SW480, 72 h
[5] = test system: K562; assay: Antiproliferative activity against human K562 cells assessed as reduction in cell viability incubated for 48 hrs by MTT assay; type: functional, cell-based; conditions: K562, 48 h
[6] = test system: HepG2; assay: Antiproliferative activity against human HepG2 cells assessed as reduction in cell viability incubated for 48 hrs by MTT assay; type: functional, cell-based; conditions: HepG2, 48 h

DNA topoisomerase 2-alpha (Homo sapiens), sequence (P11388 whole entry): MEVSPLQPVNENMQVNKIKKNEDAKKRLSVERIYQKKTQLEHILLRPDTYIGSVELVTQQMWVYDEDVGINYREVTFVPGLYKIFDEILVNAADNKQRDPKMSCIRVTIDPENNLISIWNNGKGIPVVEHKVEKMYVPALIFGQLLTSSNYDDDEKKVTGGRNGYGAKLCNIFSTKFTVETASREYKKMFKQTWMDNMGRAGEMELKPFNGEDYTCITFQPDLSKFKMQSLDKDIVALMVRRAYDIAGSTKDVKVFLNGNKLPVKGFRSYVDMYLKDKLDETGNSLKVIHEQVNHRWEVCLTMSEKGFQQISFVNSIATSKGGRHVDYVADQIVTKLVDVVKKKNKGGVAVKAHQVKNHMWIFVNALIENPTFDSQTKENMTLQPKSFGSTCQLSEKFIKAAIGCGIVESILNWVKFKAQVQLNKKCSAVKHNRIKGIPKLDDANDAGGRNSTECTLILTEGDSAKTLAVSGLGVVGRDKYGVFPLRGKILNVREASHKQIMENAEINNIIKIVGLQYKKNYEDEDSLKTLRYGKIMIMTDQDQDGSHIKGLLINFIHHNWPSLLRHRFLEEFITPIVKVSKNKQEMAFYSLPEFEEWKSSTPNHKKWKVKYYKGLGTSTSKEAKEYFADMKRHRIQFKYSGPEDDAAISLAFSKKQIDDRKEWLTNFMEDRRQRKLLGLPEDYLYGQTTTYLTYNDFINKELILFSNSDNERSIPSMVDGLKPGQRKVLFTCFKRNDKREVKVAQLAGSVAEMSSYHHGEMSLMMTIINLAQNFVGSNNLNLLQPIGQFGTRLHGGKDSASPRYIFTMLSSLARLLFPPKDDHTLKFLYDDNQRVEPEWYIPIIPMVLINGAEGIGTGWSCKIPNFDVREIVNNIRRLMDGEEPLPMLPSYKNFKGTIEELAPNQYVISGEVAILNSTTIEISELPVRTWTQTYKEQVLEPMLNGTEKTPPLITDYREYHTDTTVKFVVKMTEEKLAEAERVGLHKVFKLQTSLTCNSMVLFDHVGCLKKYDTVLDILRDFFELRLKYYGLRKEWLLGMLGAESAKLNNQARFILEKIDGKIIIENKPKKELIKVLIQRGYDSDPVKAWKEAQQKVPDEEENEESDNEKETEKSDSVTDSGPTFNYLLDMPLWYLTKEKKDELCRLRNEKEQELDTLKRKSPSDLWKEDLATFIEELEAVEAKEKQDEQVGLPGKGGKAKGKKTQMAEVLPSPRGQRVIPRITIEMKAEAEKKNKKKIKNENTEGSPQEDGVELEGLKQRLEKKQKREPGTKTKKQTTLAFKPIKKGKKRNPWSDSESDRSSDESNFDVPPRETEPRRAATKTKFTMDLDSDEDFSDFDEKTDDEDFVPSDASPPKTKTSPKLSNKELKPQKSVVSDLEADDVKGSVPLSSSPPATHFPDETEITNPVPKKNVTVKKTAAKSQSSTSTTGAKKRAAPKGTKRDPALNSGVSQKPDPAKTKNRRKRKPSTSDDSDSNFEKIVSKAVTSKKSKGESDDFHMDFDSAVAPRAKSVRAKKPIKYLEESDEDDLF

Compound | inhibition [1] | IC50 [2] [µM] | IC50 [3] [µM] | IC50 [4] [µM] | IC50 [5] [µM] | IC50 [6] [µM]
O=c1c2cc(O)ccc2[nH]c2c([N+](=O)[O-])ccc(NCc3cccs3)c12 | inactive | > 20 | > 20 | > 20 | – | –
COc1cc([C@@H]2c3cc4c(cc3[C@@H](O[C@@H]3O[C@@H]5CO[C@@H](C)O[C@H]5[C@H](O)[C@H]3O)[C@H]3COC(=O)[C@H]23)OCO4)cc(OC)c1O [ETOPOSIDE] | Active | 1.7 | – | 0.6 | 10.8 | –
COc1ccc(CCNc2ccc(N)c3[nH]c4ccc(O)cc4c(=O)c23)cc1OC | – | > 50 | 17.2 | > 50 | – | –
COc1ccc2[nH]c3c([N+](=O)[O-])ccc(NCCCN4CCN(C)CC4)c3c(=O)c2c1 | Active | 1 | 0.9 | 2 | – | –
COc1ccc(Nc2ccc(N)c3[nH]c4ccc(OC)cc4c(=O)c23)cc1 | – | > 12.5 | > 12.5 | > 25 | – | –
COc1ccc(Nc2ccc([N+](=O)[O-])c3[nH]c4ccc(O)cc4c(=O)c23)cc1OC | inactive | > 20 | > 20 | > 20 | – | –
CN1CCN(Cc2ccc(Nc3ccc([N+](=O)[O-])c4[nH]c5ccc(O)cc5c(=O)c34)cc2)CC1 | Active | 0.4 | 0.6 | 0.3 | – | –
CCN(CC)CCNc1ccc2ncn3c4ccc(O)cc4c(=O)c1c23 [C-1311] | – | 0.3 | – | 0.48 | – | –
CN1CCN(CCNc2ccc([N+](=O)[O-])c3[nH]c4ccc(O)cc4c(=O)c23)CC1 | Active | 0.7 | 1.2 | 1.2 | – | –
COc1ccc2[nH]c3c([N+](=O)[O-])ccc(NCCc4ccc(O)c(O)c4)c3c(=O)c2c1 | – | > 20 | > 20 | 6.5 | – | –
COc1ccc(CCNc2ccc(N)c3[nH]c4ccc(F)cc4c(=O)c23)cc1OC | – | 17.5 | 12.3 | 11.3 | – | –
COc1ccc2[nH]c3c(N)ccc(Nc4ccc(N5CCOCC5)cc4)c3c(=O)c2c1 | – | 17.8 | 17.5 | 3.8 | – | –
COc1cccc(Nc2ccc([N+](=O)[O-])c3[nH]c4ccc(O)cc4c(=O)c23)c1 | Active | > 20 | > 20 | > 20 | – | –
O=c1c2cc(F)ccc2[nH]c2c([N+](=O)[O-])ccc(NCc3ccc(O)cc3)c12 | – | > 20 | 10.5 | > 20 | – | –
CCCCCCCCCCCCOc1ccc(OCCCCNCCCCNCCCNCCC)c2c1C(=O)c1ccccc1C2=O | – | – | – | – | – | 8.8
Nc1ccc(NCCc2cccc(C(F)(F)F)c2)c2c(=O)c3cc(O)ccc3[nH]c12 | – | > 50 | > 20 | > 20 | – | –
COc1ccc(CCNc2ccc([N+](=O)[O-])c3[nH]c4ccc(O)cc4c(=O)c23)cc1OC | – | > 20 | > 20 | > 20 | – | –
COc1ccc2[nH]c3c(N)ccc(Nc4ccc(-n5cncn5)cc4)c3c(=O)c2c1 | Active | > 20 | 16.8 | 15.7 | – | –
COc1ccc2[nH]c3c([N+](=O)[O-])ccc(NCc4ccco4)c3c(=O)c2c1 | – | > 20 | > 20 | > 20 | – | –
O=c1c2cc(O)ccc2[nH]c2c([N+](=O)[O-])ccc(NCc3ccco3)c12 | Active | > 20 | 12.2 | 15.5 | – | –
O=c1c2cc(O)ccc2[nH]c2c([N+](=O)[O-])ccc(Nc3ccc(CN4CCCCC4)cc3)c12 | Active | 2.5 | 1.1 | 2.3 | – | –
COc1ccc2[nH]c3c([N+](=O)[O-])ccc(NCCc4ccc(OC)c(OC)c4)c3c(=O)c2c1 | – | > 20 | 12.8 | 19.7 | – | –
O=c1c2cc(O)ccc2[nH]c2c([N+](=O)[O-])ccc(Nc3ccc(Cn4cncn4)cc3)c12 | Active | 3.9 | 7.6 | 2.3 | – | –
COc1ccc2[nH]c3c(N)ccc(NCCc4ccc(OC)c(OC)c4)c3c(=O)c2c1 | – | 8.8 | 8.8 | 15.6 | – | –
O=c1c2cc(O)ccc2[nH]c2c([N+](=O)[O-])ccc(NCc3ccc(O)cc3)c12 | – | > 20 | > 20 | > 20 | – | –

Compound | inhibition [1] | IC50 [2] [µM] | IC50 [3] [µM] | IC50 [4] [µM] | IC50 [5] [µM] | IC50 [6] [µM]
CN1CCN(c2ccc(Nc3ccc([N+](=O)[O-])c4[nH]c5ccc(O)cc5c(=O)c34)cc2)CC1 | Active | 1.5 | 4.8 | 1.1 | – | –
CCCCCCCCCCCOc1ccc(OCc2ccc(C(=O)N[C@@H](Cc3ccccc3)C(=O)O)cc2)c2c1C(=O)c1ccccc1C2=O | – | – | – | – | 1.82 | –
O=c1c2cc(O)ccc2[nH]c2c([N+](=O)[O-])ccc(NCc3ccsc3)c12 | Active | > 20 | > 20 | > 20 | – | –
COc1ccc2[nH]c3c([N+](=O)[O-])ccc(Nc4ccc(O)cc4)c3c(=O)c2c1 | Active | 11.8 | 7.5 | 17.1 | – | –
COc1ccc(Nc2ccc([N+](=O)[O-])c3[nH]c4ccc(O)cc4c(=O)c23)cc1 | Active | > 20 | > 20 | > 20 | – | –
O=c1c2cc(O)ccc2[nH]c2c([N+](=O)[O-])ccc(Nc3ccc(O)cc3)c12 | Active | > 20 | > 20 | > 20 | – | –
O=c1c2cc(O)ccc2[nH]c2c([N+](=O)[O-])ccc(NCc3ccc(F)cc3)c12 | – | > 20 | > 20 | > 20 | – | –
COc1ccc2[nH]c3c([N+](=O)[O-])ccc(Nc4ccc(N5CCOCC5)cc4)c3c(=O)c2c1 | – | > 20 | > 20 | > 20 | – | –
COc1ccc(CCNc2ccc([N+](=O)[O-])c3[nH]c4ccc(F)cc4c(=O)c23)cc1OC | – | > 20 | 4.5 | 8.8 | – | –
COc1cc(Nc2ccc([N+](=O)[O-])c3[nH]c4ccc(O)cc4c(=O)c23)cc(OC)c1 | Active | > 20 | > 20 | > 20 | – | –
O=C1c2c(O)ccc(O)c2C(=O)c2c(NCCNCCO)ccc(NCCNCCO)c21 [MITOXANTRONE] | – | – | – | – | 2.35 | 15.3
COc1ccc2[nH]c3c([N+](=O)[O-])ccc(NCCc4cccc(C(F)(F)F)c4)c3c(=O)c2c1 | – | > 20 | 12.4 | 12.4 | – | –
COc1ccc2[nH]c3c([N+](=O)[O-])ccc(Nc4ccc(N5CCN(C)CC5)cc4)c3c(=O)c2c1 | – | > 20 | > 20 | > 20 | – | –
COc1ccc2[nH]c3c(N)ccc(NCCc4cccc(C(F)(F)F)c4)c3c(=O)c2c1 | – | > 20 | > 20 | > 20 | – | –
COc1ccc2[nH]c3c([N+](=O)[O-])ccc(NCc4cccnc4)c3c(=O)c2c1 | – | > 20 | > 20 | > 20 | – | –
O=c1c2cc(O)ccc2[nH]c2c([N+](=O)[O-])ccc(NCc3cccnc3)c12 | inactive | > 20 | > 20 | > 20 | – | –
CCCCCCCCCCCOc1ccc(OCc2ccc(C(=O)N[C@@H](CCC(=O)O)C(=O)O)cc2)c2c1C(=O)c1ccccc1C2=O | – | – | – | – | 0.77 | –
COc1ccc2[nH]c3c(N)ccc(Nc4ccc(OC)c(OC)c4)c3c(=O)c2c1 | – | 4.6 | 6.2 | 8.6 | – | –
O=c1c2cc(O)ccc2[nH]c2c([N+](=O)[O-])ccc(Nc3ccc(N4CCOCC4)cc3)c12 | – | 5.9 | 6.4 | 2.4 | – | –
COc1ccc2[nH]c3c([N+](=O)[O-])ccc(Nc4ccc(CN5CCCCC5)cc4)c3c(=O)c2c1 | Active | 5.7 | 1.7 | 8.8 | – | –
O=c1c2cc(O)ccc2[nH]c2c([N+](=O)[O-])ccc(NCCc3cccc(C(F)(F)F)c3)c12 | – | > 20 | 7.6 | 11.7 | – | –
COc1ccc2[nH]c3c(N)ccc(NCCc4ccc(O)c(O)c4)c3c(=O)c2c1 | – | > 50 | > 50 | > 50 | – | –
COc1ccc2[nH]c3c([N+](=O)[O-])ccc(NCc4ccc(O)cc4)c3c(=O)c2c1 | – | 12.4 | > 20 | > 20 | – | –
COc1ccc2[nH]c3c([N+](=O)[O-])ccc(NCc4cccs4)c3c(=O)c2c1 | – | > 20 | > 20 | > 20 | – | –
